Reference: paper PMC7465040, “Cytotoxic and Anti-Plasmodial Activities of Stephania dielsiana Y.C. Wu Extracts and the Isolated Compounds” (Molecules, 2020)
Read-outs that look alike come from different tables or passages of the source.

Key:
MDA-MB-468 = test: SRB cell proliferation assay, MDA-MB-468; type: cell-based, human; conditions: for IC50: Homo sapiens, MDA-MB-468, 72 h, read-out: IC50 (μM ± SD) MDA-MB-468
Protocol: (§1) In vitro anticancer study: The in vitro anti-proliferative tests were carried out as described previously, using aliquots of the cell lines used therein. Briefly, HeLa, MDA-MB-231 and MDA-MB-468, MCF7, and 184B5 and MCF 10A cell lines were purchased from ATCC. The identity of the cell lines presented in this study were verified by short tandem repeat profiling by Genetica DNA Laboratories (www.celllineauthentication.com) (April 8, 2015). MCF10A was grown in DMEM F12 medium supplemented with 0.02 μg/mL epidermal growth factor, 10% FBS, 10 μg/mL insulin and […] hydrocortisone. MDA-MB-468 were grown in DMEM supplemented with 10% FBS and antibiotics cocktail (100 μg/mL streptomycin, 100 units/mL penicillin and 250 ng/mL amphotericin B). SRB cell proliferation assays were carried out as previously described, with some minor modifications. The concentration range for all tested cell lines were from 100–0.39 μg/mL for extracts and 100–0.39 μM for pure compounds. […] All experiments were carried out at least twice.

HeLa = test: SRB cell proliferation assay, HeLa; type: cell-based, human; conditions: for IC50: Homo sapiens, HeLa, 72 h, read-out: IC50 (μM ± SD) HeLa
Protocol: as §1

MDA-MB-231 = test: SRB cell proliferation assay, MDA-MB-231; type: cell-based, human; conditions: for IC50: Homo sapiens, MDA-MB-231, 72 h, read-out: IC50 (μM ± SD) MDA-MB-231
Protocol: as §1

[1] = system: chloroquine-susceptible 3D7 P. falciparum strain; test: In vitro anti-plasmodial assay (HRP2 ELISA), 3D7; type: cell-based, Plasmodium falciparum; conditions: for IC50: Plasmodium falciparum, 3D7, 72 h, read-out: IC50 (μM ± SD) 3D7; for SI 3D7 184B5: selectivity index between 184B5 and parasites 3D7
Protocol: (§2) Parasites were grown in A-positive human blood (Etablissement Français du Sang, Marseille, France) under controlled atmospheric conditions that consisted of 10% O2, 5% CO2, and 85% N2 at 37 °C with a humidity of 95%.
(§3) In vitro anti-plasmodial assay: The two P. falciparum strains 3D7 and W2 were synchronized twice with sorbitol before use. The clonality of these strains was verified both in our laboratory and in an independent laboratory from the Worldwide Anti-malarial Resistance Network (WWARN) by PCR genotyping of the polymorphic genetic markers msp1 and msp2 and microsatellite loci. The compounds were re-suspended in methanol or DMSO 5% (v/v) and then diluted in methanol to obtain final concentrations ranging from 0.008 to 500 μg/mL (final concentration of 0.5% of methanol or DMSO). […] The plates were incubated for 72 h at 37 °C in controlled atmospheric conditions 5% CO2, 10% O2, and […]. After thawing the plates, haemolysed cultures were homogenized by vortexing the plates. Both the success of the drug susceptibility assay and the appropriate volume of haemolysed culture to use for each assay were determined for each clinical isolate during a preliminary HRP2 ELISA. Both the pre-test and subsequent ELISA assays were performed using a commercial kit (Malaria Ag Celisa, ref KM2159, Cellabs PTY LTD, Brookvale, Australia) according to the manufacturer’s recommendation. The optical density (OD) of each sample was measured with a spectrophotometer (Safire 2, Tecan, Lyon, France). […] The anti-plasmodial in vitro assay was performed five times for each product. The IC50 values represented the mean value calculated from five experiments. According to Hout, a selectivity index (SI) was based on the ratio between anti-parasitic and cytotoxic activities. In the case of our study, a SI was calculated between non-tumorigenic cell line 184B5 and parasites 3D7 or W2 and/or MCF10A and these two parasites.

MCF 10A = test: SRB cell proliferation assay, MCF10A non-cancer cells; type: cell-based; conditions: Homo sapiens, read-out: IC50 (μM ± SD) MCF 10A
Protocol: as §1

MCF7 = test: SRB cell proliferation assay, MCF7; type: cell-based, human; conditions: for IC50: Homo sapiens, MCF7, 72 h, read-out: IC50 (μM ± SD) MCF7
Protocol: as §1

[2] = system: chloroquine-resistant W2 P. falciparum strain; test: In vitro anti-plasmodial assay (HRP2 ELISA), W2; type: cell-based, Plasmodium falciparum; conditions: for IC50: Plasmodium falciparum, W2, 72 h, read-out: IC50 (μM ± SD) W2; for SI W2 184B5: selectivity index between 184B5 and parasites W2
Protocol: as §2, §3

184B5 = test: SRB cell proliferation assay, 184B5 non-cancer cells; type: cell-based, human; conditions: Homo sapiens
Protocol: as §1

[3] = system: HeLa, MDA-MB231, MDA-MB-468, MCF7, 184B5 and MCF10A cell lines; test: SRB cell proliferation assay, whole panel of cell lines; type: cell-based, human; conditions: Homo sapiens, read-out: IC50 values, range over the cell lines examined
Protocol: as §1

[4] = system: Plasmodium falciparum 3D7 and W2 strains; test: In vitro anti-plasmodial assay, both strains; type: cell-based
Protocol: as §2, §3

[5] = 184B5, 72 h, read-out: IC50 (μM ± SD) 184B5
[6] = 184B5, read-out: IC50 (μM ± SD) 184B5
[7] = 72 h, HRP2 ELISA, mean of five experiments

Row | SMILES | IC50 (MDA-MB-468) [µM] | IC50 (HeLa) [µM] | IC50 (MDA-MB-231) [µM] | IC50 [1] [µM] | IC50 (MCF 10A; 72 h) [µM] | IC50 (MCF 10A) [µM] | IC50 (MCF7) [µM] | IC50 [2] [µM] | IC50 (184B5; [5]) [µM] | IC50 (184B5; [6]) [µM] | SI 3D7 184B5 ([1]; Table 3) | SI W2 184B5 ([2]; Table 3) | IC50 [1, 7] [µM] | IC50 [2, 7] [µM] | further results
1 | CCN(CC)CCCC(C)Nc1ccnc2cc(Cl)ccc12 (stereo not drawn) [Chloroquine, reference compound] | 33.2 ± 0.4 | 29.8 ± 0.7 | 28.9 ± 0.4 | 0.021 ± 0.005 | 40.5 ± 9.8 | 40.5 ± 9.8 | > 50 | 0.38 ± 0.03 | > 50 | > 50 | – | – | – | – | –
2 | COc1ccc2c(c1OC)CC1c3c(cc4c(c3-2)OCO4)CCN1C (stereo not drawn) [Crebanine 4, crebanine] | 17.8 ± 4.63 | 48.1 ± 2.38 | 38.9 ± 7.1 | 1.56 ± 0.22 | 47.2 ± 4.37 | 47.2 ± 4.37 | 30.5 ± 4.89 | 2.16 ± 0.38 | 47.4 ± 2.83 | 47.4 ± 2.83 | 30.41 | 21.96 | – | – | Selectivity index (SI) 184B5 versus MDA-MB-468 (MDA-MB-468; Table 2B, non-cancer 184B5 vs cancer MDA-MB-468): 2.66; Selectivity index (SI) MCF10A versus MDA-MB-468 (MDA-MB-468; Table 2B, non-cancer MCF10A vs cancer MDA-MB-468): 2.65; Selectivity index (SI) 184B5 versus HeLa (HeLa; Table 2B, non-cancer 184B5 vs cancer HeLa): 0.99; Selectivity index (SI) MCF10A versus HeLa (HeLa; Table 2B, non-cancer MCF10A vs cancer HeLa): 0.98; Selectivity index (SI) 184B5 versus MDA-MB-231 (MDA-MB-231; Table 2B, non-cancer 184B5 vs cancer MDA-MB-231): 1.22; Selectivity index (SI) MCF10A versus MDA-MB-231 (MDA-MB-231; Table 2B, non-cancer MCF10A vs cancer MDA-MB-231): 1.21; IC50 [3]: 17 to 48 µM; SI 3D7 MCF10A ([1]; Table 3, selectivity index between MCF10A and parasites 3D7): 30.23; Selective index SI on 3D7 strain ([1]; vs 184B5 and MCF10A): > 20; Anti-plasmodial activity against both 3D7 and W2 (in words) [4]: strong activity; Selectivity index (SI) 184B5 versus MCF7 (MCF7; Table 2B, non-cancer 184B5 vs cancer MCF7): 1.56; Selectivity index (SI) MCF10A versus MCF7 (MCF7; Table 2B, non-cancer MCF10A vs cancer MCF7): 1.55; SI W2 MCF10A ([2]; Table 3, selectivity index between MCF10A and parasites W2): 21.83
3 | C[C@H]1[C@@H](O)O[C@@H]2O[C@@]3(C)CC[C@H]4[C@H](C)CC[C@@H]1[C@@]24OO3 [Dihydroartemisinin, reference compound] | – | – | – | – | – | – | – | – | – | – | – | – | 0.002 ± 0.001 | 0.002 ± 0.001 | –
4 | OC(c1cc(C(F)(F)F)nc2c(C(F)(F)F)cccc12)C1CCCCN1 (stereo not drawn) [Mefloquine, reference compound] | – | – | – | – | – | – | – | – | – | – | 207.6 | 490.9 | 0.052 ± 0.009 | 0.022 ± 0.006 | IC50 (184B5; 184B5, Table 3, non-cancer cell line, read-out: IC50 (μM ± SD) 184B5): 10.8 ± 0.75 µM
